Test results reported in patent publication US4231936A, “Mitomycin C derivatives” (priority 1977, dated 1980).

Key:
[1] = test system: Bacillus subtilis ATCC 10707; assay: Minimum inhibitory concentration (Table I); assay type: cell-based
Excerpt: (§1) Comparative data similarly obtained by using mitomycin A, mitomycin C and 7-N-phenyl mitomycin C are also shown in this table

[2] = test system: Klebsiella pneumoniae ATCC 10031; assay: Minimum inhibitory concentration (Table I); assay type: cell-based
Excerpt: as §1

[3] = test system: Shigella sonnei ATCC 9290; assay: Minimum inhibitory concentration (Table I); assay type: cell-based
Excerpt: as §1

[4] = test system: Staphylococcus aureus ATCC 6538P; assay: Minimum inhibitory concentration (Table I); assay type: cell-based
Excerpt: as §1

P-388 cells [5] = assay: Antitumor activity, P-388 leukemia intraperitoneally inoculated, compound i.p. (Example II); assay type: in vivo, CDF1 mice
Method: (§2) The following treatment was performed to make these compounds water-soluble for use in the experiments. A test compound was dissolved in ethanol (about 1000 times by weight) HCO-60, a commercially available surfactant was added in amounts of about 3 times by weight. The mixture was well stirred to dissolve the HCO-60. Ethanol was removed from the solution under reduced pressure by using a rotary evaporator. After this, a test solution was prepared by adding a suitable amount of a physiological saline solution with agitation.
Seven-day-old leukemia cells obtained from the ascites of DBA/2 mice inoculated intraperitoneally with 10^6 P-388 cells were used. A cell suspension containing 5×10^6 cells per ml was prepared by using a sterilized physiological saline solution. The test mice (CDF1 mice, 20-25 g) were inoculated with 0.2 ml of the cell suspension containing 1×10^6 cells intraperitoneally. After 24 hours, the mice were divided into groups (each group consisting of 5 mice) and the test solutions were administered intraperitoneally once only. […] In order to evaluate the effects of the test samples, the average survival days were calculated 30 and 60 days after tumor implantation and compared with those of the control group (untreated group). Antitumor activities of the test compounds are indicated by ILS % (increase in life span%) on the basis of the control group.

P-388 cells [6] = assay: Antitumor effect, P-388 cells intravenously inoculated, compound i.v. (Example III); assay type: in vivo, Mice; details: 30 days
Method: as §2
Mice were inoculated intravenously with P-388 cells (10^6 /0.2 ml) in a similar manner to that described above in Example II. […] Untreated mice and mice administered with Tween 80 were used for control purpose.

Sarcoma 180 cells = assay: Effect on Sarcoma-180, tumor weight ratio (Example IV); assay type: in vivo, dd-strain mice; parameters: key: D*: All mice in the group died
Method: as §2
(§3) Sarcoma 180 cells were inoculated intraperitoneally into dd-strain mice. After 7 days following tumor implantation, ascites tumor cells were obtained from the mice. The cells were washed and a tumor cell suspension containing 5×10^7 cells per ml was prepared with physiological saline solution. 0.1 ml of the thus-prepared suspension containing 5×10^6 cells was inoculated into the left inguinal region of each of the test mice (dd-strain; weight 19±1 g; divided into groups, each group consisting of 5 mice). After 24 hours following the inoculation, the test compounds were administered to the mice individually and intraperitoneally. After 4 days following the inoculation, the peripherical blood of the treated mice was obtained by the puncture of the orbital vein. The number of the leucocytes in the peripheral blood was measured by using Toa Microcell Counter CC-108 (a commercial product of Toa Medical Electronics Co., Ltd., Japan). In order to evaluate the antitumor effects, the tumor was removed 7 days after the inoculation and weighed. Its weight was compared with the average weight of the tumors of the control group (untreated) to give the weight ratios (T/C) shown in Table 5.

[7] = Number of leucocytes in peripheral blood of Sarcoma-180 bearing mice (Example IV); assay type: in vivo, dd-strain mice; parameters: key: D*: All mice in the group died
Method: as §2, §3

Solubility in water = assay type: physicochemical
[8] = Acute toxicity determination, intraperitoneal; parameters: species or system Mice (dd-strain); details: mouse, in vivo, ip; dd mice, single i.p., 14 days, Behrens-Karber
Method: as §2
Mice [dd-strain; weight 20±1 g; each group consisted of 5 mice] were used for this experiment. An individual test solution was administered to each mouse by intraperitoneal injection. The test solutions (each 0.5 ml) were prepared by stepwise dilution.

[9] = 5 mg/kg i.p. once, determined after 30 days
[10] = 5 mg/kg i.p. once, determined after 60 days
[11] = 10 mg/kg i.p. once, determined after 30 days
[12] = 10 mg/kg i.p. once, determined after 60 days
[13] = 15 mg/kg i.p. once, determined after 30 days
[14] = 15 mg/kg i.p. once, determined after 60 days
[15] = 20 mg/kg i.p. once, determined after 30 days
[16] = 20 mg/kg i.p. once, determined after 60 days
[17] = 5 mg/kg i.p., tumor weighed 7 days after inoculation
[18] = 10 mg/kg i.p., tumor weighed 7 days after inoculation
[19] = 20 mg/kg i.p., tumor weighed 7 days after inoculation
[20] = 5 mg/kg i.p., 4 days after inoculation
[21] = 10 mg/kg i.p., 4 days after inoculation
[22] = 20 mg/kg i.p., 4 days after inoculation
[23] = 30 mg/kg i.p. once, determined after 30 days
[24] = 30 mg/kg i.p. once, determined after 60 days

Molecule `COC1=C(C)C(=O)C2=C(C1=O)[C@@H](COC(N)=O)[C@@]1(OC)[C@H]3N[C@H]3CN21` [Compound I, mitomycin A] has a minimum inhibitory concentration [1] of under 0.025, a minimum inhibitory concentration [2] of under 0.025 and a minimum inhibitory concentration [3] of 0.098. It also gave a minimum inhibitory concentration [4] of under 0.025.
Work on `CO[C@@]12[C@H](COC(N)=O)C3=C(C(=O)C(C)=C(Nc4ccccc4)C3=O)N1C[C@@H]1N[C@@H]12` [III, 7-N-phenyl mitomycin C, reference compound] yielded a minimum inhibitory concentration [1] of under 0.025, a minimum inhibitory concentration [2] of 0.098 and a minimum inhibitory concentration [3] of 1.563. For the same molecule, the minimum inhibitory concentration [4] was under 0.025, the Average survival days (P-388 cells [5]; [9]) was 17.84 ± 1.2 days and the “ILS % (increase in life span)” value (P-388 cells [5]; [9]) was 82%. For the same molecule, the Number of survivors (P-388 cells [5]; [9]) was 0/5, the Average survival days (P-388 cells [5]; [10]) was 17.8 ± 1.2 days and the “ILS % (increase in life span)” value (P-388 cells [5]; [10]) was 82%. The Number of survivors (P-388 cells [5]; [10]) was 0/5, the Average survival days (P-388 cells [5]; [11]) was 21.8 ± 4.3 days and the “ILS % (increase in life span)” value (P-388 cells [5]; [11]) was 122%. For the same molecule, the Number of survivors (P-388 cells [5]; [11]) was 1/5, the Average survival days (P-388 cells [5]; [12]) was 22.04 ± 4.6 days and the “ILS % (increase in life span)” value (P-388 cells [5]; [12]) was 124%. For the same molecule, the Number of survivors (P-388 cells [5]; [12]) was 0/5, the Average survival days (P-388 cells [5]; [13]) was 21.2 ± 2.8 days and the “ILS % (increase in life span)” value (P-388 cells [5]; [13]) was 116%. The Number of survivors (P-388 cells [5]; [13]) was 0/5, the Average survival days (P-388 cells [5]; [14]) was 21.2 ± 2.8 days and the “ILS % (increase in life span)” value (P-388 cells [5]; [14]) was 116%. The Number of survivors (P-388 cells [5]; [14]) was 0/5, the Average survival days (P-388 cells [5]; [15]) was 21.6 ± 4.4 days and the “ILS % (increase in life span)” value (P-388 cells [5]; [15]) was 120%. For the same molecule, the Number of survivors (P-388 cells [5]; [15]) was 1/5, the Average survival days (P-388 cells [5]; [16]) was 21.8 ± 4.8 days and the “ILS % (increase in life span)” value (P-388 cells [5]; [16]) was 122%. The Number of survivors (P-388 cells [5]; [16]) was 0/5, the Average survival days (P-388 cells [6]; 5 mg/kg i.v. once) was 11.4 ± 1.4 days and the ILS % (P-388 cells [6]; 5 mg/kg i.v. once) was 33%. For the same molecule, the Average survival days (P-388 cells [6]; 10 mg/kg i.v. once) was 13.6 ± 1.4 days, the ILS % (P-388 cells [6]; 10 mg/kg i.v. once) was 54% and the Average survival days (P-388 cells [6]; 15 mg/kg i.v. once) was 15.8 ± 1.5 days. The ILS % (P-388 cells [6]; 15 mg/kg i.v. once) was 84%, the Average survival days (P-388 cells [6]; 20 mg/kg i.v. once) was 18.0 ± 1.7 days and the ILS % (P-388 cells [6]; 20 mg/kg i.v. once) was 109%. The Average survival days (P-388 cells [6]; 30 mg/kg i.v. once) was 10.0 ± 2.3 days, the ILS % (P-388 cells [6]; 30 mg/kg i.v. once) was 16% and the “T/C (tumor weight ratio)” value (Sarcoma 180 cells; [17]) was 0.84. The “T/C (tumor weight ratio)” value (Sarcoma 180 cells; [18]) was 0.59, the “T/C (tumor weight ratio)” value (Sarcoma 180 cells; [19]) was 0.21 and the “T/C (tumor weight ratio)” value (Sarcoma 180 cells; 40 mg/kg i.p., death symbol in place of T/C) was “D*”. For the same molecule, the “Average number of leucocytes” value [7, 20] was 81.4 ± 21.2 × 10^2 /mm^3, the “Average number of leucocytes” value [7, 21] was 60.8 ± 18.7 × 10^2 /mm^3 and the “Average number of leucocytes” value [7, 22] was 31.8 ± 11.9 × 10^2 /mm^3. The “Average number of leucocytes” value ([7]; 40 mg/kg i.p., death symbol in place of count) was “D*” and the solubility in water (Solubility in water) was “low solubility in water”.
`CO[C@@]12[C@H](COC(N)=O)C3=C(C(=O)C(C)=C(Nc4ccc(O)cc4)C3=O)N1C[C@@H]1N[C@@H]12` [Compound IV, 7-N-(p-hydroxyphenyl)-mitomycin C] gave a minimum inhibitory concentration [1] of 0.049, a minimum inhibitory concentration [2] of 0.391 and a minimum inhibitory concentration [3] of 6.25. It also gave a minimum inhibitory concentration [4] of 0.196, an LD50 at 336 h [8] of 34 mg/kg and an Average survival days (P-388 cells [5]; [9]) of 20.4 ± 5.2 days. For the same molecule, the “ILS % (increase in life span)” value (P-388 cells [5]; [9]) was 108%, the Number of survivors (P-388 cells [5]; [9]) was 1/5 and the Average survival days (P-388 cells [5]; [10]) was 20.4 ± 5.2 days. The “ILS % (increase in life span)” value (P-388 cells [5]; [10]) was 108%, the Number of survivors (P-388 cells [5]; [10]) was 0/5 and the Average survival days (P-388 cells [5]; [11]) was 23.0 ± 4.5 days. The “ILS % (increase in life span)” value (P-388 cells [5]; [11]) was 135%, the Number of survivors (P-388 cells [5]; [11]) was 1/5 and the Average survival days (P-388 cells [5]; [12]) was 23.4 ± 5.1 days. The “ILS % (increase in life span)” value (P-388 cells [5]; [12]) was 136%, the Number of survivors (P-388 cells [5]; [12]) was 0/5 and the Average survival days (P-388 cells [5]; [15]) was 28.4 ± 3.2 days. The “ILS % (increase in life span)” value (P-388 cells [5]; [15]) was 190%, the Number of survivors (P-388 cells [5]; [15]) was 4/5 and the Average survival days (P-388 cells [5]; [16]) was 47.6 ± 15.8 days. The “ILS % (increase in life span)” value (P-388 cells [5]; [16]) was 386%, the Number of survivors (P-388 cells [5]; [16]) was 3/5 and the Average survival days (P-388 cells [5]; [23]) was 15.4 ± 0.4 days. For the same molecule, the “ILS % (increase in life span)” value (P-388 cells [5]; [23]) was 57%, the Number of survivors (P-388 cells [5]; [23]) was 1/5 and the Average survival days (P-388 cells [5]; [24]) was 21.4 ± 20.7 days. For the same molecule, the “ILS % (increase in life span)” value (P-388 cells [5]; [24]) was 118%, the Number of survivors (P-388 cells [5]; [24]) was 1/5 and the Average survival days (P-388 cells [6]; 5 mg/kg i.v. once) was 11.4 ± 1.4 days. It also gave an ILS % (P-388 cells [6]; 5 mg/kg i.v. once) of 33%, an Average survival days (P-388 cells [6]; 10 mg/kg i.v. once) of 14.0 ± 0 days and an ILS % (P-388 cells [6]; 10 mg/kg i.v. once) of 63%. The Average survival days (P-388 cells [6]; 15 mg/kg i.v. once) was 16.6 ± 1.5 days, the ILS % (P-388 cells [6]; 15 mg/kg i.v. once) was 93% and the Average survival days (P-388 cells [6]; 20 mg/kg i.v. once) was 17.6 ± 4.1 days. It also gave an ILS % (P-388 cells [6]; 20 mg/kg i.v. once) of 105%, an Average survival days (P-388 cells [6]; 30 mg/kg i.v. once) of 7.6 ± 0.8 days and an ILS % (P-388 cells [6]; 30 mg/kg i.v. once) of -12%. For the same molecule, the “T/C (tumor weight ratio)” value (Sarcoma 180 cells; [17]) was 0.83, the “T/C (tumor weight ratio)” value (Sarcoma 180 cells; [18]) was 0.66 and the “T/C (tumor weight ratio)” value (Sarcoma 180 cells; [19]) was 0.46. For the same molecule, the “T/C (tumor weight ratio)” value (Sarcoma 180 cells; 40 mg/kg i.p., tumor weighed 7 days after inoculation) was 0.27, the “Average number of leucocytes” value [7, 20] was 63.2 ± 10.2 × 10^2 /mm^3 and the “Average number of leucocytes” value [7, 21] was 64.0 ± 24.6 × 10^2 /mm^3. The “Average number of leucocytes” value [7, 22] was 39.0 ± 5.6 × 10^2 /mm^3, the “Average number of leucocytes” value ([7]; 40 mg/kg i.p., 4 days after inoculation) was 40.0 ± 15.3 × 10^2 /mm^3 and the solubility in water (Solubility in water) was “low solubility in water”.
